Laboratory results published in patent US20260226022A1, “CRYSTAL FORM AND USE OF PARP7 INHIBITOR AND SALT THEREOF” (QILU PHARMACEUTICAL CO., LTD., priority 2023, published 2026).
Entries after “also recorded” stand apart in the source; their conditions may differ. Blank lines part the entries; values can stand above or below the compound they belong to.

Columns and labels:
PARP7 = biological target: T1, PARP7 (Homo sapiens, UniProt Q7Z3E1); test: PARP7 in vitro enzymatic assay; format: biochemical
T1 sequence (Q7Z3E1 1-657): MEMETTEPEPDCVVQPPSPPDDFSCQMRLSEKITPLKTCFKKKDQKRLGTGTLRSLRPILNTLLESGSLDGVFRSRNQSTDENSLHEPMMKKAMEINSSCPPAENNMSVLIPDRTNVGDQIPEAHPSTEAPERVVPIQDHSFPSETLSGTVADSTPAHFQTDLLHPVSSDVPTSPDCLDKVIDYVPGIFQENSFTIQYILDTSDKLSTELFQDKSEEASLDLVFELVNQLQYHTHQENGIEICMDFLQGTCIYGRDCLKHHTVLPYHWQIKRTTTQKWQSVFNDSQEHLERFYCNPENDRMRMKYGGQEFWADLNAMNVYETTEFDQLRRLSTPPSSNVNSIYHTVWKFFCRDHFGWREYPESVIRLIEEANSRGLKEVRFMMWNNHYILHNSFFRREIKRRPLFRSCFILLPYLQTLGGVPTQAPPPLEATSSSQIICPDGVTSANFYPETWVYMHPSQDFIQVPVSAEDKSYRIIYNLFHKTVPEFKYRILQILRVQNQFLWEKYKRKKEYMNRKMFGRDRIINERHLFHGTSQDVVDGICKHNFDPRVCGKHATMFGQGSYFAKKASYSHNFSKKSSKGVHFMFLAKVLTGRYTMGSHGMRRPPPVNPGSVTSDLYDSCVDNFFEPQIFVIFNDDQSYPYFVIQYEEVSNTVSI
Experimental: In this experiment, the inhibitory effect of the compound of formula (I) on PARP7 enzyme activity was tested by serial dilution of the tested compounds and assayed in replicates. 1. A histone-coated 384-well plate was prepared by adding 25 μL of histone solution to each well and incubating at 4° C. overnight. 2. PBST buffer, blocking buffer and assay buffer were prepared. 3. The histone-coated 384-well plate was washed 3 times using PBST buffer. Blocking was performed at room temperature for 1 hour using 50 μL of blocking buffer. The plate was washed 3 times using PBST buffer. 4. Compound preparation: A 2000× compound was prepared in a 96-well source plate. 50 nL of the compound was transferred from the source plate to a 96-well intermediate plate. Each well was supplemented with 39.95 μL of assay buffer. The plate was shaken well and centrifuged at 1000 rpm for 1 minute. 5 μL of the compound in DMSO was transferred to each well. 5. Enzymatic reaction: An enzyme mixture was incubated at 25° C. for 10 minutes. 10 μL of the enzyme mixture was added and incubated with the compound for 10 minutes at room temperature. 10 μL of assay buffer was added to the negative control wells of the assay plate. 10 μL of 2.5× Biotin-NAD+ was added to each well, followed by incubation at 25° C. for 60 min. […] The plate was immediately read using Paradigm and detected for reads at Ex550/Em620. […]

[1] = In vivo pharmacokinetic determination in mice (intravenous bolus and oral); design: species or system C57BL/6 mice
[2] = In vivo pharmacokinetic determination in rats (intravenous bolus and oral); design: species or system SD rats
Text: To study the in vivo plasma pharmacokinetic behavior of the compounds of the present application after single intravenous bolus injection and oral administration, using male C57BL/6 mice or SD male rats as tested animals.
Healthy adult C57BL/6 mice or SD rats (3 rats/group), male, from Shanghai Jihui Laboratory Animal Breeding Co., Ltd. and Charles River Laboratories Co., Ltd.
The intravenous bolus injection and oral groups were consisted of 3 mice or rats, and the dose of intravenous bolus injection was 1 mg/kg in a volume of 5 mL/kg, and the dose of oral administration was 5 mg/kg in a volume of 10 mL/kg. The solvent was 5% DMSO/5% Kolliphor HS15/90% Saline.
After the animals were administered, 0.02 mL of blood was collected intravenously at 0.0833(IV), 0.25, 0.5, 1, 2, 4, 8, and 24 hours. Blood was placed in EDTA-K2 tubes, centrifuged at 4° C. and 4600 rpm for 5 min to separate the plasma, and stored at −80° C.
1) 10 μL of plasma sample was precipitated by adding 200 μL of acetonitrile, vortexed and mixed, and centrifuged for 15 min.
2) The supernatant after treatment was diluted with water, and then analyzed for the concentration of the tested compounds by LC/MS/MS.
• Liquid phase conditions: Shimadzu LC-30AD; • Mass spectrometry conditions: AB Sciex API 5500; • Chromatographic column: Phenomenex Kinetex 2.6 μm C18; • Mobile phase: A: 5 mM ammonium acetate aqueous solution (containing 0.05 vol % of formic acid); B: acetonitrile (containing 0.1 vol % of formic acid) flow rate: 0.5 mL/min;
Pharmacokinetic parameters were calculated using WinNonlin 8.0 and the pharmacokinetic parameters of the drugs administered intravenously and orally to mice or rats are shown in Tables 17 and 18 below. Wherein, “Dose” denotes the administered dose, “CL” denotes the plasma clearance, “Vss” denotes the volume of distribution at steady state of the drug, “T1/2” denotes the half-life of the drug, “AUC” denotes the area under the concentration-time curve. “Cmax” denotes the peak drug concentration, and “F” indicates bioavailability.

[3] = Hygroscopicity test by dynamic vapor sorption (DVS); format: physicochemical; settings: for Hygroscopicity evaluation: Chinese Pharmacopoeia 2020 classes; for Weight gain at 80% RH / Weight gain at 90% RH: DVS, 25° C.; for Crystal form after DVS: XRPD before and after the DVS test
Experimental: The moisture adsorption of the sample was determined using a dynamic vapor sorption instrument from DVS Intrinsic. The sample was placed in a tared sample basket and weighed by the instrument automatically and analyzed according to the parameters in Table 10.

[4] = Influence factor tests (stability at temperature, humidity, light; HPLC purity and XRPD); format: physicochemical
Experimental: The purity was assayed using HPLC and the crystal form was assayed using XRPD on day 0, 2 and 7, and the experimental results are shown in Table 11.
The purity was assayed using HPLC and the crystal form was assayed using XRPD on day 0, 5 and 10, and the experimental results are shown in Table 12.

[5] = male, mouse, plasma, C57BL/6 mice, intravenous, 1 mg/kg
[6] = male, mouse, plasma, C57BL/6 mice, oral, 5 mg/kg
[7] = male, rat, plasma, SD rats, intravenous, 1 mg/kg
[8] = male, rat, plasma, SD rats, oral, 5 mg/kg

SMILES: O=C(OCCc1c[nH]c(=O)c(C(F)(F)F)c1)N1CCN(c2ncc(C(F)(F)F)cn2)CC1 [Compound of formula (I), 2-(6-oxo-5-(trifluoromethyl)-1,6-dihydropyridin-3-yl)ethyl-4-(5-(trifluoromethyl)pyrimidin-2-yl) piperazine-1-carboxylate]
Inhibition of PARP7 enzyme activity (conclusion in words) (PARP7): can effectively inhibit PARP7 enzyme activity | F ([1]; C57BL/6 mice, oral, 5 mg/kg): 80% | Exposure in plasma compared with control compound RBN-2397 ([1]; mouse plasma, same dose, intravenous bolus injection and oral administration): significantly higher exposure | F ([2]; SD rats, oral, 5 mg/kg): 47% | Exposure in plasma compared with control compound RBN-2397 ([2]; rat plasma, same dose, intravenous bolus injection and oral administration): significantly higher exposure

SMILES: O=C(OCCc1c[nH]c(=O)c(C(F)(F)F)c1)N1CCN(c2ncc(C(F)(F)F)cn2)CC1.[Na+] [Crystal form I]
Hygroscopicity evaluation [3]: Hygroscopic (hygroscopic weight gain of less than 15.0% but not less than 2.0%) | Hygroscopicity evaluation ([3]; listed as crystal form I): had hygroscopicity; also recorded: slightly hygroscopic | Weight gain at 80% RH [3]: 13.29% | Weight gain at 80% RH ([3]; listed as crystal form I): 13.29% | Weight gain at 90% RH [3]: 13.77% | Purity (Area %) ([4]; 25° C./75% RH, day 5): 99.69% Area % | Purity (Area %) ([4]; 25° C./75% RH, day 10): 99.72% Area % | Purity (Area %) ([4]; 25° C./90% RH, day 5): 99.71% Area % | Purity (Area %) ([4]; 25° C./90% RH, day 10): 99.74% Area % | Purity (Area %) ([4]; 40° C., day 5): 99.71% Area % | Purity (Area %) ([4]; 40° C., day 10): 99.70% Area % | Purity (Area %) ([4]; 60° C., day 5): 99.72% Area % | Purity (Area %) ([4]; 60° C., day 10): 99.67% Area % | Purity (Area %) ([4]; Light exposure, day 5): 99.67% Area % | XRPD ([4]; Light exposure, day 5): Crystal form I | Purity (Area %) ([4]; Light exposure, day 10): 99.61% Area % | Purity (Area %) ([4]; T0, day 0): 99.69% Area % | Physicochemical stability (conclusion in words) ([4]; high humidity): a transformation of the crystal occurs under high humidity conditions | Physicochemical stability (conclusion in words) ([4]; high temperature): physicochemical stable at high temperature

Second part, led by results:

Weight gain at 80% RH [3]: 1.07% | Weight gain at 80% RH ([3]; listed as crystal form IV): 1.07% | Weight gain at 90% RH [3]: 1.11% | Purity (Area %) ([4]; 40° C./75% RH, day 2): 99.72 Area % | Purity (Area %) ([4]; 40° C./75% RH, day 7): 99.62 Area % | Purity (Area %) ([4]; 60° C., day 2): 99.73 Area % | Purity (Area %) ([4]; 60° C., day 7): 99.65 Area % | Purity (Area %) ([4]; T0, day 0): 99.73 Area % | Physicochemical stability (conclusion in words) ([4]; high humidity): relatively stable | Physicochemical stability (conclusion in words) ([4]; high temperature): relatively stable
SMILES: O=C(OCCc1c[nH]c(=O)c(C(F)(F)F)c1)N1CCN(c2ncc(C(F)(F)F)cn2)CC1 [Crystal form IV]
Hygroscopicity evaluation ([3]; listed as crystal form IV): slight hygroscopicity; also recorded: slightly hygroscopic | Crystal form after DVS ([3]; listed as crystal form IV): no transformation of the crystal; also recorded: unchanged

Hygroscopicity evaluation ([3]; listed as crystal form X): slight hygroscopicity | Weight gain at 80% RH ([3]; listed as crystal form X): 1.4% | Crystal form after DVS ([3]; listed as crystal form X): no transformation of the crystal
SMILES: O=C(OCCc1c[nH]c(=O)c(C(F)(F)F)c1)N1CCN(c2ncc(C(F)(F)F)cn2)CC1 [Crystal form X]

F ([1]; C57BL/6 mice, oral, 5 mg/kg): 14% | AUC [1, 5]: 288 ng·h/mL | clearance [1, 5]: 56.7 mL/min/kg | Vd ([1]; male, mouse, plasma, C57BL/6 mice, intravenous, 1 mg/kg, read-out: Vss): 0.6 L/kg | AUC [1, 6]: 203 ng·h/mL | Cmax [1, 6]: 612 ng/mL | F ([2]; SD rats, oral, 5 mg/kg): 27% | AUC [2, 7]: 193 ng·h/mL | clearance [2, 7]: 85 mL/min/kg | half-life [2, 7]: 12 min | Vd ([2]; male, rat, plasma, SD rats, intravenous, 1 mg/kg, read-out: Vss): 1.2 L/kg | AUC [2, 8]: 264 ng·h/mL | Cmax [2, 8]: 319 ng/mL
SMILES: C[C@@H](COCCC(=O)N1CCN(c2ncc(C(F)(F)F)cn2)CC1)Nc1cn[nH]c(=O)c1C(F)(F)F [RBN-2397]
